According to patent US6610738B2, “N-disubstituted carbamoyloxy flavones” (priority 2000, dated 2003):
Where two headings read alike, the source gives them in different places.

What was measured:
acetylcholine esterase [1] = test: AChE inhibition ex vivo (Table II); type: in vivo
acetylcholine esterase [2] = molecular target: acetylcholine esterase (Homo sapiens, UniProt P22303); test: biochemical
[3] = time not given, read-out: AchE inhibition IC50
[4] = read-out: AchE inhibition IC50 (5′)
[5] = read-out: AchE inhibition IC50 (30′)

Sequence of acetylcholine esterase (Homo sapiens, UniProt P22303) (P22303 32-614): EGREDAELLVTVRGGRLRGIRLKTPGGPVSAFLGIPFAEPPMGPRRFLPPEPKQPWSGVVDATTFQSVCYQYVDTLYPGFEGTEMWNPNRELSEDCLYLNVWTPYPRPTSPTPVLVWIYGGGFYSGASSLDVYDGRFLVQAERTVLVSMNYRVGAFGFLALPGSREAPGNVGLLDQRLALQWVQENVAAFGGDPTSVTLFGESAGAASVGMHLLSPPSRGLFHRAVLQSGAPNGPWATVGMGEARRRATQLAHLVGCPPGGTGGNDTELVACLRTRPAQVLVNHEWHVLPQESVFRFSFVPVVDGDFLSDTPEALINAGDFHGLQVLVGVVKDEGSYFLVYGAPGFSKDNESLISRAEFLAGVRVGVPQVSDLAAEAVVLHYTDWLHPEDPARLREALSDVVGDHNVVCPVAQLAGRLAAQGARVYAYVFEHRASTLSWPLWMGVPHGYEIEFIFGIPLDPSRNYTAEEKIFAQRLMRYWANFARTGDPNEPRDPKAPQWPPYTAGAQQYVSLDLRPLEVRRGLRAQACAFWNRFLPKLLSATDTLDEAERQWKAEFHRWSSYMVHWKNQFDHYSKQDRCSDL

Row | SMILES | melting point [°C] | IC50 (acetylcholine esterase [2]; [3]) [µM] | other results
1 | CN(C)C(=O)Oc1cccc(-c2cc(=O)c3cc(N(C)C)ccc3o2)c1 | 167 to 168 |  | 
2 | CCOc1ccc2c(=O)cc(-c3ccccc3OC(=O)N(C)C)oc2c1 | 166 to 168 |  | 
3 | CCOc1ccc2c(=O)cc(-c3ccccc3OC(=O)N(C)CC)oc2c1 | 91 to 93.5 |  | 
4 | COc1ccccc1-c1cc(=O)c2ccc(OC(=O)N(C)C)cc2o1 | 133.5 to 135 |  | 
5 | CN(C)C(=O)Oc1ccc2c(=O)cc(-c3ccccc3OC(=O)N(C)C)oc2c1 | 145.5 to 147 |  | 
6 | CN(C)C(=O)Oc1cccc(-c2cc(=O)c3cc(N)ccc3o2)c1 | 157 to 159 |  | 
7 | CN(C)C(=O)Oc1ccccc1-c1cc(=O)c2ccccc2o1 |  | 2.65 | AchE inhibition Ex vivo (acetylcholine esterase [1]; at 40 μM/kg): 29% at 40 μM/kg
8 | CN(C)C(=O)Oc1cccc(-c2cc(=O)c3ccccc3o2)c1 |  | 1.4 | AchE inhibition Ex vivo (acetylcholine esterase [1]; at 40 μM/kg): 42% at 40 μM/kg
9 | CCN(C)C(=O)Oc1cccc(-c2cc(=O)c3ccccc3o2)c1 |  | 41 | 
10 | CCN(C)C(=O)Oc1ccccc1-c1cc(=O)c2ccccc2o1 |  | 3.5 | AchE inhibition Ex vivo (acetylcholine esterase [1]; at 50 μM/kg): 14% at 50 μM/kg
11 | C[N+](C)(C)c1ccc2oc(-c3ccccc3)cc(=O)c2c1 |  |  | IC50 (acetylcholine esterase [2]; [4]): 10.5 µM; IC50 (acetylcholine esterase [2]; [5]): 48 µM
12 | COc1ccc(-c2cc(=O)c3cc([N+](C)(C)C)ccc3o2)cc1 |  |  | IC50 (acetylcholine esterase [2]; [4]): 5.5 µM; IC50 (acetylcholine esterase [2]; [5]): 6 µM
13 | CN(C)CCOc1cccc(-c2cc(=O)c3ccccc3o2)c1 |  |  | IC50 (acetylcholine esterase [2]; [4]): 10 µM; IC50 (acetylcholine esterase [2]; [5]): 5.8 µM
